Test results: patent US11142505B2, “Compositions for APP-selective BACE inhibition and uses therefor” (The Regents of the University of California, priority 2015, dated 2021)
Values joined by “and” are separate entries in the source; they are usually repeats but may differ in a detail not shown here. Identical values can stand only once. Counter-ions that a name gives are not always drawn. Like-named read-outs stand apart in the source and are kept apart here.

Legend:
[1] = system: CHO-7W cells that were stably transfected with human APP (wildtype); test: Secondary cell-based test of APP processing (sAPPalpha, sAPPbeta, Abeta 1-42); settings: for sAPP (α/β) / sAPPα/Aβ / sAPPalpha / Abeta 1-42 / sAPPbeta: Secondary (1st test, n = 3); for sAPP (α/β) / sAPPα/Aβ: ratio; for Abeta 1-42 / sAPPbeta: ↓ decrease; for Aβ1-42 peptide formation, in words: FIG. 1C, FIG. 5B
Description: Cellular Assays: Numerous cell-based assays can be used to evaluate the activity of agent(s) of interest on relative alpha-secretase activity to beta-secretase activity and/or processing of APP to release amyloidogenic versus non-amyloidogenic oligomers.
Relative activity of the alpha-secretase to the beta-secretase can be measured by analysis of one or more cleavage products of the APP substrate. For example, inhibition of beta-secretase activity against the substrate APP would be expected to decrease release of specific beta-secretase induced APP cleavage products such as Aβ (e.g., Aβ40 or Aβ42), sAPPβ and APPneo. Promotion or enhancement of alpha-secretase activity against the substrate APP would be expected to increase release of specific alpha-secretase induced APP cleavage products such as sAPPα and p3 peptide.
In such assays, for example, the cells expressing APP, alpha-secretase and/or beta-secretase are incubated in a culture medium under conditions suitable for alpha-secretase and/or beta-secretase enzymatic activity at its cleavage site on the APP substrate. On exposure of the cells to the agent(s), the amount of Aβ released into the medium and/or the amount of CTF99 fragments of APP in the cell lysates is reduced as compared with the control. The cleavage products of APP can be analyzed, for example, by immune reactions with specific antibodies, as discussed above.

solubility (Sol) = format: physicochemical; settings: Table 3
BACE1 = BACE1 (Homo sapiens (Human), UniProt P56817); test: in vitro BACE inhibition assay (Primary BACE1 IC50); format: biochemical; settings: for BACE activity / IC50 in the BACE assay, in words: FIG. 1B, FIG. 2B
Description: ABBI Assay: APP Binding BACE Inhibitor (ABBI) activity of any of the compounds described herein can readily be verified using, for example, assays described herein. […] In one illustrative embodiment, an MBP-C125 APP695 wt fusion protein can be used as one of the substrates and the second substrate can be the commercially available P5-P5′ fluorescence substrate.

[2] = pharmacokinetics, plasma and brain levels; format: in vivo
Description: As is readily apparent, not all compounds were equally able to cross the blood brain barrier, but most compounds did reach pharmacologically meaningful levels given their low IC50 values. FIG. 5A provides a further exemplary compound (FAH65) and FIG. 5B depicts dose response data for Aβ1-42 production in a cell based system.. Further shown are effects observed with regard to Aβ1-42 production, sAPPβ and sAPPα formation. […] Here, data are presented for oral and subcutaneous administration (SQ) at dosages of 10- and 30 mg/kg. […] Once more, it should be noted that these exemplary compounds are preferential towards APP in BACE inhibition as can be taken from the data for Aβ1-42, sAPPβ, and sAPPα formation.

[3] = one cell spans the readout columns
[4] = Table 4, several values in a cell are repeat determinations, read-out: BACE1 IC50

Chain of BACE1 (P56817 46-501): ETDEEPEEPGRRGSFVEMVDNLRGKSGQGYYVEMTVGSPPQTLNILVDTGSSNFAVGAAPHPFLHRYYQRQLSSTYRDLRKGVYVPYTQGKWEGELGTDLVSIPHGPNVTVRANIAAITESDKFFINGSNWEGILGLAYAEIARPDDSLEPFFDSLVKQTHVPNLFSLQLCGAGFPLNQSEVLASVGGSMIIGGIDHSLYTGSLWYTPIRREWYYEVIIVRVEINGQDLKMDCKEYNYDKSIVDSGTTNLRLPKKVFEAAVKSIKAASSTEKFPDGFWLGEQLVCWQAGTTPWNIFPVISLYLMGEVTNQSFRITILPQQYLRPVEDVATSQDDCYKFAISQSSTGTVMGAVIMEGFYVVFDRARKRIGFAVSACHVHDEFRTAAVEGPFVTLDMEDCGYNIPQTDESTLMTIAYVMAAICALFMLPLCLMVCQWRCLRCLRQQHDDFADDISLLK

Compound | sAPP (α/β) ([1]; ↑ increase) | sAPPα/Aβ ([1]; ↑ increase) | sAPPalpha ([1]; ↑ increase) | Abeta 1-42 [1] | sAPPbeta [1] | other results
Cc1cc(C2(c3cocn3)N=C(N)N(C)C2=O)ccc1OC(F)F (stereo not drawn) [FAH-38] | – | – | – | – | – | Secondary (1st test) result across all readouts [1, 3]: unchanged
Cc1cc(C2(c3cncnc3)N=C(N)N(C)C2=O)ccc1OC(F)F (stereo not drawn) [FAH-33] | ↑≈10% | ↑>20% | ↑>10% | ↓≈10% | Unchanged | –
Cc1cc(C2(c3cccc(C(F)(F)F)c3)N=C(N)N(C)C2=O)ccc1OC(F)F (stereo not drawn) [FAH-28] | ↑>50% | ↑>40% | ↑>20% | ↓>20% | ↓>20% | –
CNCc1cccc(C2(c3ccc(OC(F)F)c(C)c3)N=C(N)N(C)C2=O)c1 (stereo not drawn) [FAH-62] | ↑≈50% | – | ↑>10% | ↓<10% | ↓>20% | Sol (solubility (Sol)): Good; sAPPα/Aβ ([1]; ↓ (decrease)): ↓≈30%
Cc1cc(C2(c3cccc(F)c3)N=C(N)N(Cc3ccccc3)C2=O)ccc1OC(F)F (stereo not drawn) [FAH-42] | ↑>50% | unchanged | ↑>10% | ↓≈10% | ↓>30% | –
Cc1cccc(C2(c3ccc(OC(F)F)c(C)c3)N=C(N)N(C)C2=O)c1 (stereo not drawn) [FAH-27] | ↑>100% | ↑>100% | ↑>30% | ↓>40% | ↓>30% | –
Cc1cc(F)cc(C2(c3ccc(OC(F)F)c(C)c3)N=C(N)N(C)C2=O)c1 (stereo not drawn) [FAH-22] | ↑≈50% | ↑>100% | ↑>10% | ↓>25% | ↓>20% | IC50 (BACE1; [4]): 0.71 µM
Cc1cc(C2(c3ccnc(F)c3)N=C(N)N(C)C2=O)ccc1OC(F)F (stereo not drawn) [FAH-46] | ↑≈10% | – | ↑>10% | ↓>20% | ↓<10% | Sol (solubility (Sol)): Good; Cmax brain [2]: ~0.3 µM; sAPPα/Aβ ([1]; ↓ (decrease)): ↓>40%
COCc1cccc(C2(c3ccc(OC(F)F)c(C)c3)N=C(N)N(C)C2=O)c1 (stereo not drawn) [FAH-44] | ↑>100% | – | ↑>10% | ↓>30% | ↓>30% | Sol (solubility (Sol)): Excellent; Cmax brain [2]: ~0.2 µM; sAPPα/Aβ ([1]; ↓ (decrease)): ↓>100%; IC50 (BACE1; Table 3, read-out: IC50): ~0.25 µM
Cc1cc(C2(c3cnn(C)c3)N=C(N)N(C)C2=O)ccc1OC(F)F (stereo not drawn) [30 HCl] | ↑≈40% | – | ↑>10% | – | ↓>20% | –
Cc1cc(C2(C3CCN(C)CC3)N=C(N)N(C)C2=O)ccc1OC(F)CF (stereo not drawn) [FAH-67] | – | – | – | – | – | IC50 (BACE1; [4]): 24.2 µM
Cc1cc(C2(c3cccc(Cl)c3)N=C(N)N(C)C2=O)ccc1OC(F)F (stereo not drawn) [FAH-23] | ↑>50% | ↑>100% | ↑>20% | ↓>25% | ↓>20% | –
Cc1cc(C2(c3ccc(OC(F)F)c(C)c3)N=C(N)N(C)C2=O)ccn1 (stereo not drawn) [FAH-47] | ↑>50% | – | ↑>10% | ↓≈10% | ↓>20% | sAPPα/Aβ ([1]; ↓ (decrease)): ↓>20%
Cc1cc(C2(c3cccc(F)c3)N=C(N)N(C)C2=O)ccc1OC(F)F (stereo not drawn) [FAH-17] | ↑>100% | ↑>100% | ↑>20% | ↓>30% | ↓>30% | Sol (solubility (Sol)): Med; Cmax brain [2]: ~0.3 µM
Cc1cc(C2(c3cncc(F)c3)N=C(N)N(C)C2=O)ccc1OC(F)F (stereo not drawn) [FAH-37] | ↑>50% | – | ↑>10% | ↓≈20% | ↓>20% | Sol (solubility (Sol)): Good; Cmax brain [2]: ~0.11 uM μM; sAPPα/Aβ ([1]; ↓ (decrease)): ↓>40%; BACE activity / IC50 in the BACE assay, in words (BACE1): less effective in reducing BACE activity in vitro; IC50 (BACE1; [4]): 1.93 µM and 2.8 µM and 4.7 µM; IC50 (BACE1; Tables 1 and 2, read-out: Primary BACE1 IC50): 0.15 µM
Cc1cc(C2(c3cccc(-c4cccnc4)c3)N=C(N)N(C)C2=O)ccc1OC(F)F (stereo not drawn) [FAH-32] | ↑>100% | ↑>100% | ↑>20% | ↓>60% | ↓>30% | Sol (solubility (Sol)): Med; Cmax brain [2]: <0.02 µM; Aβ1-42 peptide formation, in words [1]: substantially reduced; sAPPα formation, in words ([1]; FIG. 1D, compared to FAH17): increased sAPPα formation as compared to FAH17; sAPPβ formation, in words ([1]; FIG. 1D, compared to FAH17): reduced as compared to FAH17; BACE activity / IC50 in the BACE assay, in words (BACE1): significantly reduced IC50
Cc1cc(C2(c3cccc(-c4cncnc4)c3)N=C(N)N(C)C2=O)ccc1OC(F)F (racemic) [FAH-65] | – | – | – | – | – | brain levels / crossing the blood brain barrier, in words ([2]; FIG. 4, FIG. 5C (oral and SQ, 10 and 30 mg/kg)): pharmaceutically meaningful concentrations can be achieved in the brain; Aβ1-42 peptide formation, in words [1]: strongly reduces Aβ1-42 production; preference towards APP in BACE inhibition, in words ([1]; from Aβ1-42, sAPPβ and sAPPα formation): clear preference towards APP in BACE inhibition
Cc1cc(C2(c3cccc(C4CNC4)c3)N=C(N)N(C)C2=O)ccc1OC(F)CF (stereo not drawn) [FAH-64] | – | – | – | – | – | IC50 (BACE1; [4]): 3.2 µM
Cc1cc(C2(C3CCCCC3)N=C(N)N(C)C2=O)ccc1OC(F)F (stereo not drawn) [FAH-59] | – | – | – | – | – | Secondary (1st test) toxicity [1, 3]: Toxic
COc1cc(C2(c3ccc(OC(F)F)c(C)c3)N=C(N)N(C)C2=O)ccn1 (stereo not drawn) [FAH-48] | ↑≈50% | – | ↑>10% | ↓≈10% | ↓>20% | sAPPα/Aβ ([1]; ↓ (decrease)): ↓>20%
COCc1cc(C2(c3ccc(OC(F)F)c(C)c3)N=C(N)N(C)C2=O)ccn1 (stereo not drawn) [FAH-53] | ↑≈50% | – | ↑>10% | ↓<10% | ↓<10% | sAPPα/Aβ ([1]; ↓ (decrease)): ↓≈20%
Cc1cc(C2(c3cccc(-c4cncc(F)c4)c3)N=C(N)N(C)C2=O)ccc1OC(F)F (stereo not drawn) [FAH-66] | – | – | – | – | – | IC50 (BACE1; [4]): 0.12 µM
Cc1cc(C2(c3cc(F)cc(F)c3)N=C(N)N(C)C2=O)ccc1OC(F)F (stereo not drawn) [FAH-03] | ↑≈50% | ↑>50% | ↑>10% | ↓>20% | ↓>20% | –
CCCC1CC(C2(C3=CC(C)=C(OC(F)F)C(C)C3)N=C(N)N(C)C2=O)CCN1C (stereo not drawn) [FAH-68] | – | – | – | – | – | IC50 (BACE1; [4]): 16.1 µM
Cc1cc(C2(c3cc(F)cc(Cl)c3)N=C(N)N(C)C2=O)ccc1OC(F)F (stereo not drawn) [FAH-25] | ↑≈50% | ↑>40% | ↑>10% | ↓>20% | ↓>20% | –
